The source of these data is US10859587B2, “Application of artificially expressed HSP27 protein in detecting a residue of a β2-adrenergic receptor agonist-based drug” (HENAN ACADEMY OF AGRICULTURAL SCIENCE, priority 2016, dated 2020).

In test [1] the test system is artificially expressed HSP27 protein. The test can be described thus: ELISA binding experiment between HSP27 protein and biotin-conjugated small molecules. The following applies: 100 ng/mL biotin-conjugated small molecule; HSP27 coated in gradient from 100 μg/mL. How it is done:
1. The bacteria solution of BL21 (DE3) host bacteria of artificially expressed HSP27 was subjected to ultrasonication, and then coated in gradient on a ELISA plate with an initial concentration of 100 μg/mL (based on the protein) in an amount of 50 μL/well;
2. 100 ng/mL of small molecules conjugated biotin was added into the resultant ELISA plate in an amount of 50 μL/well, mixed well on a shaker, and incubated at 37° C. for 30 min in the dark; the ELISA plate was washed with an ELISA plate washing machine for 4 times, or the liquid in the wells of the ELISA plate was manually removed by shaking out, each well was filled with diluted buffer solution, and then shaken out the liquid to dry again, and washing as repeated in this way for 4 times;
3. HRP-labeled streptavidin conjugate was added into the ELISA plate, and the reaction was carried out at 37° C. for 30 min; washing was performed in the same way as the above step for 4 times.
4. TMB solution was added into corresponding microwells according to the required amount of 100 μL per well, and the plate was shaken on the ELISA plate shaker for 30 s, and subjected to color development at room temperature for 10 min;
5. 50 μL of 2 mol/L sulfuric acid was added to each well to terminate the reaction, and the plate was shaken on the ELISA plate shaker for 30 s, and then the absorbance at 450 nm of each well was read with a microplate reader, and the results were judged (see FIG. 2 for the results).

The subject of test [2] is HSP27 polyclonal antiserum. The test can be described thus: ELISA identification of artificially expressed HSP27 protein with HSP27 polyclonal antiserum. The test is classed as binding. The following applies: HSP27 1 μg/mL. How it is done: The artificially expressed HSP27 protein at an optimal concentration was selected as a coating antigen, and coated on the ELISA plate in an amount of 50 μL/well. The plate was placed in a 37° C. constant temperature incubator for reaction for 2 h, washed with PBST for 4 times, and air-dried at room temperature. BSA with a mass fraction of 1% was added as a blocking solution in amount of 200 μL/well, and reaction was carried out at a constant temperature of 37° C. for 1 h. The resultant plate was washed with PBST for 4 times, and air-dried at room temperature. Then, HSP27 polyclonal antiserum with gradient concentrations was added at 50 μL/well, a negative control (NC) was set, and the plate was held at 37° C. for 30 min, and washed for 4 times. 50 μL of goat anti-mouse secondary antibody (1:1000) was added to each well, and the plate was held at 37° C. for 30 min, and then washed for 4 times. The color development reaction was carried out with TMB color developing solution in an amount of 100 μL/well, and 10 minutes later, the reaction was terminated with 50 μL of 2 mol/L H2SO4. The absorbance of each well was read at 450 nm with a microplate reader.

`CC(CCc1ccc(O)cc1)NCC(O)c1ccc(O)cc1` (racemic) [Ractopamine]: the “binding to HSP27 (ELISA, absorbance at 450 nm, FIG. 2)” value in test [1] is listed as “can bind to HSP27”.
As to `CC(C)(C)NCC(O)c1cc(Cl)c(N)c(Cl)c1` (stereo not shown) [Clenbuterol], the “binding to HSP27 (ELISA, absorbance at 450 nm, FIG. 2)” value in test [1] was “can bind to HSP27”.
Same read-out and setting: with `CC(Cc1ccc(O)cc1)NCC(O)c1cc(O)cc(O)c1` (stereo not shown) [Fenoterol] the entry was “can bind to HSP27”.
“artificially expressed HSP27 protein: HSP27 CDS cloned in pLSLa vector, expressed in BL21 (DE3) with IPTG, purified by agarose resin column”: the “absorbance at 450 nm” value in test [2] (serum dilution ratio 5000) is reported as 4.00; in test [2] (serum dilution ratio 10000), 3.92; in test [2] (serum dilution ratio 20000) it was 4.00; in test [2] (serum dilution ratio 40000), 3.77; in test [2] (serum dilution ratio 80000), 3.50; in test [2] (serum dilution ratio 160000) it was 2.60. Besides, the “absorbance at 450 nm” value in test [2] (serum dilution ratio 320000) was determined as 1.63; in test [2] (serum dilution ratio 640000) it was 0.97; in test [2] (serum dilution ratio 1280000), 0.67; in test [2] (serum dilution ratio 2560000) it was 0.51.
